Assay results published in patent US11261213B2, “Crystalline bis- and tris-hydrochloride salt of elamipretide” (Stealth BioTherapeutics Inc., priority 2018, dated 2022).
Values after ≈ are worked out from the molar mass of the structure shown. Where a name gives a salt, the structure may show the parent alone. Read-outs that look alike come from different tables or passages of the source. Residues, ends and D or L forms follow the SMILES beside them.

Columns and labels:
[1] = Effect of drying and humidity exposure on crystalline solid (XRPD); format: physicochemical
Procedure: Powder x-ray diffraction (XRPD) experiments were performed on a Rigaku MiniFlex 600 equipped with a Cu Kα radiation source (wavelength of x-rays 1.54 Å), and a scintillation detector. Samples were prepared on Si zero-return wafers. Scans were performed from 2θ 4 to 30 degrees over a step size of 0.05 over thirty minutes with cathode ray tube voltage and current 40 kV and 15 mA, respectively.
The crystalline solid was dried at 50 C under vacuum overnight, and analyzed by XRPD. […] Furthermore, the dry solid was exposed to about 95% relative humidity at room temperature for 24 hours followed by XRPD analysis. […] It should be noted that 3-HCl salt of MTP-131 deliquesces at more than 70% relative humidity.

[2] = Gravimetric vapour sorption (GVS); format: physicochemical
Procedure: Approximately 15 mg of sample was placed into a mesh vapour sorption balance pan and loaded into an IGASorp Moisture Sorption Analyser balance by Hiden Analytical. The sample was subjected to a ramping profile from 40-90% relative humidity (RH) at 10% increments, maintaining the sample at each step until a stable weight had been achieved (98% step completion). After completion of the sorption cycle, the sample was dried using the same procedure to 0% RH, then subjected to a second ramping profile from 0-90% relative humidity. After completion of the second sorption cycle, the sample was dried using the same procedure to 0% RH, and finally taken back to the starting point of 40% RH. The weight change during the sorption/desorption cycles were plotted, allowing for the hygroscopic nature of the sample to be determined.

physchem [3] = assay: physchem
physchem [4] = settings: water
Procedure: The solubility of the crystalline solid was assessed qualitatively in water.

SMILES: Cc1cc(O)cc(C)c1C[C@H](NC(=O)[C@H](N)CCCNC(=N)N)C(=O)N[C@@H](CCCCN)C(=O)N[C@@H](Cc1ccccc1)C(N)=O [MTP-131 HCl] (HELM PEPTIDE1{[dR].[Cc1cc(O)cc(C)c1C[C@H](N[*:1])C(=O)[*:2]].K.F.[am]}$$$$V2.0)
- Relative humidity at which the salt deliquesces [1]: more than 70 % relative humidity
- Hygroscopicity by GVS [2]: highly hygroscopic
- GVS mass increase ([2]; between 40-90% RH): ca. 30%
- State of solid after GVS ([2]; ramping up to 90% RH): deliquesced and adhered to the basket
- solubility (physchem [3]): ≤ 10000 µg/mL
- solubility (physchem [3]; 2-Propanol, Solubility at 50° C.): < 10000 µg/mL
- solubility (physchem [3]; 2-Propanol:Water (95:5 v/v), Solubility at 50° C., 2-Propanol:Water (95:5 v/v)): < 10000 µg/mL
- solubility (physchem [3]; 2-Propanol:Water (99:1 v/v), Solubility at 50° C., 2-Propanol:Water (99:1 v/v)): < 10000 µg/mL
- solubility (physchem [3]; Acetone, Solubility at 50° C.): < 10000 µg/mL
- solubility (physchem [3]; Acetone:Water (95:5 v/v), Solubility at 50° C., Acetone:Water (95:5 v/v)): < 10000 µg/mL
- solubility (physchem [3]; Acetonitrile:DMSO (85:15 v/v), Solubility at 50° C., Acetonitrile:DMSO (85:15 v/v)): < 10000 µg/mL
- solubility (physchem [3]; Acetonitrile:Water (95:5 v/v), Solubility at 50° C., Acetonitrile:Water (95:5 v/v)): < 10000 µg/mL
- solubility (physchem [3]; Acetonitrile:Water (99:1 v/v), Solubility at 50° C., Acetonitrile:Water (99:1 v/v)): < 10000 µg/mL
- solubility (physchem [3]; DCM:DMSO (85:15 v/v), Solubility at 50° C., DCM:DMSO (85:15 v/v)): < 10000 µg/mL
- solubility (physchem [3]; Dichloromethane, Solubility, carried out at 35° C. (footnote)): < 10000 µg/mL
- solubility (physchem [3]; Ethanol, Solubility at 50° C.): 10000 µg/mL
- solubility (physchem [3]; Ethanol:DMSO (95:5% v/v), Solubility at 50° C., Ethanol:DMSO (95:5% v/v)): ~33000 µg/mL
- solubility (physchem [3]; Ethanol:Water (95:5 v/v), Solubility at 50° C., Ethanol:Water (95:5 v/v)): ~67000 µg/mL
- solubility (physchem [3]; Methanol, Solubility at 50° C.): > 200000 µg/mL
- solubility (physchem [3]; Methanol:Water (95:5 v/v), Solubility at 50° C., Methanol:Water (95:5 v/v)): > 200000 µg/mL
- solubility (physchem [3]; THF:Water (95:5% v/v), Solubility at 50° C., THF:Water (95:5% v/v), (separated)): < 10000 µg/mL
- solubility (physchem [3]; THF:Water (99:1 v/v), Solubility at 50° C., THF:Water (99:1 v/v)): < 10000 µg/mL
- solubility (physchem [3]; Trifluoroethanol, Solubility at 50° C.): < 10000 µg/mL

SMILES: Cc1cc(O)cc(C)c1C[C@H](NC(=O)[C@H](N)CCCNC(=N)N)C(=O)N[C@@H](CCCCN)C(=O)N[C@@H](Cc1ccccc1)C(N)=O [crystalline solid] (HELM PEPTIDE1{[dR].[Cc1cc(O)cc(C)c1C[C@H](N[*:1])C(=O)[*:2]].K.F.[am]}$$$$V2.0)
- Physical integrity after humidity exposure ([1]; about 95% relative humidity, room temperature, 24 hours): physically kept its integrity
- XRPD pattern after drying (stability upon drying) ([1]; dried at 50 C under vacuum overnight): No changes were observed
- XRPD after humidity exposure ([1]; dry solid, about 95% relative humidity, room temperature, 24 hours): remained unchanged
- solubility (physchem [4]): ~60000 µg/mL (≈ 93.8 mM)
